From patent US4069316A, “Method for producing antibiotic T-42082 and antibiotic T-42082” (Takeda Chemical Industries, Ltd., priority 1976, dated 1978)

Tested on: Eimeria tenella
Assay: Experimental 3: anticoccidial effect in chicks inoculated with drug-resistant wild strain
Procedure: The following experiment was carried out with a wild strain resistant to the conventional anticoccidial drugs.
The oocysts, predominantly of Eimeria tenella, obtained from a wild strain were used to inoculate chicks at a rate of 10×10^5 sporulated oocysts per bird. […] The battery test procedure was repeated.

## NC(=NN=Cc1ccc(Cl)cc1)NN=Cc1ccc(Cl)cc1 [Lobenidine]
33.0 ppm
  At end of experiment/At start of experiment (No. of birds): 3/3
  Relative Weight gain: 26.4%
  The pathological change of caecum: birds scored +: 0
  The pathological change of caecum: birds scored ++: 0
  The pathological change of caecum: birds scored +++: 0
  The pathological change of caecum: birds scored ++++: 3
  The pathological change of caecum: birds scored -: 0
33.0 ppm, day 4
  No. of blood drops/per bird: 2.3
33.0 ppm, day 5
  No. of blood drops/per bird: 9.3
  No. of deaths: 0
33.0 ppm, day 6
  No. of blood drops/per bird: 9.3
  No. of deaths: 0
33.0 ppm, day 7
  No. of blood drops/per bird: 6.0
  No. of deaths: 0
33.0 ppm, day 8
  No. of deaths: 0
66.0 ppm
  At end of experiment/At start of experiment (No. of birds): 3/3
  Relative Weight gain: 53.4%
  The pathological change of caecum: birds scored +: 0
  The pathological change of caecum: birds scored ++: 0
  The pathological change of caecum: birds scored +++: 0
  The pathological change of caecum: birds scored ++++: 3
  The pathological change of caecum: birds scored -: 0
66.0 ppm, day 4
  No. of blood drops/per bird: 0.6
66.0 ppm, day 5
  No. of blood drops/per bird: 8.0
  No. of deaths: 0
66.0 ppm, day 6
  No. of blood drops/per bird: 10.0
  No. of deaths: 0
66.0 ppm, day 7
  No. of blood drops/per bird: 4.6
  No. of deaths: 0
66.0 ppm, day 8
  No. of deaths: 0
